Read-outs that look alike come from different tables or passages of the source.
How the values were obtained:
F. culmorum = assay: Example 8 sensitivity testing of potato tuber pathogens to imazalil derivatives (EC50); type: cell-based; conditions: isolate F. culmorum P13, Trial B, read-out: EC50 (concentration required to reduce mycelial growth by 50%)
Procedure: (§1) For tests with imazalil sulphate and imazalilium docusate prepared according to Trial B, imazalil sulphate (0.5 g, drug pure, Janssen) was dissolved in sterile water (100 ml) to give a stock solution (12.7 mM). […] Dilutions (alternately five-fold and two-fold) of each of these stock solutions were prepared (in water for imazalil sulphate and in ethanol for imazalilium docusate) to produce a dilution series (12.7, 2.54, 1.27, 0.25, and 0.13 mM).
(§2) Log-probability plots of the percentage reduction in growth against the concentration were used to estimate EC50 values (the concentration required to reduce mycelial growth by 50%) (see Table 6).

F. coeruleum = assay: as above; type: cell-based; conditions: isolate F. coeruleum ex B7/06 T8; Trial B; read-out: EC50 (concentration required to reduce mycelial growth by 50%)
Procedure: as §1, §2

F. sambucinum = assay: as above; type: cell-based; conditions: Trial B, read-out: EC50 (concentration required to reduce mycelial growth by 50%)
Procedure: as §1, §2

Phoma exigua = assay: as above; type: cell-based; conditions: isolate Phoma exigua 9.1; Trial B; read-out: EC50 (concentration required to reduce mycelial growth by 50%)
Procedure: as §1, §2

Phoma foveata = assay: as above; type: cell-based; conditions: isolate Phoma foveata BL2/5 T3, Trial B, read-out: EC50 (concentration required to reduce mycelial growth by 50%)
Procedure: as §1, §2

P. erythroseptica = assay: as above; type: cell-based, Phytophthora erythroseptica; conditions: for EC50: Trial B, read-out: EC50 (concentration required to reduce mycelial growth by 50%)
Procedure: as §1, §2

[1] = Thermogravimetric analysis (thermal stability); type: physicochemical; conditions: TGA under nitrogen, 5° C./min
Procedure: Thermogravimetric analysis was performed on a Mettler Toledo Star^e TGA/DSC (Leicester, UK) under nitrogen. Samples between 5 and 10 mg were placed in open alumina pans and were heated from 25° C. to 600° C. with a heating rate of 5° C./min. Decomposition temperatures (T5% dec) were reported from onset to 5 wt % mass loss Infrared spectra were recorded as neat samples from 4000-450 cm^−1 on a Perkin-Elmer Spectrum 65 FT-IR spectrometer fitted with a Universal ATR Sampling Accessory. Differential scanning calorimetry (DSC) was performed on a Mettler Toledo Star^e DSC (Leicester, UK) under nitrogen. Samples between 5 and 10 mg were heated from 25° C. to 110° C. at a heating rate of 5° C./min followed by a 5 min isotherm. A cooling rate of 5° C./min to −70° C. was followed by a 5 min isotherm at −70° C., and the cycle was repeated twice. A melting transition was observed as single-event peak in the first run. […] Transitions above ambient temperature were confirmed optically on a Stuart SMP3 melting point apparatus.

[2] = test system: Phytophthora erythroseptica; assay: Example 7 sensitivity testing of potato tuber pathogens to thiabendazole derivatives; type: cell-based; conditions: in words; Table 5
Procedure: In vitro tests of the IL thiabendazolium docusate were performed in comparison to the neutral fungicide using selected isolates of Fusarium spp., the cause of potato dry rot. F. coeruleum and F. culmorum are sensitive to thiabendazole whereas isolates of F. sambucinum are frequently resistant. Isolates of Phoma spp., the cause of gangrene, and Phytophthora erythroseptica, the cause of pink rot, were also tested. All except F. sambucinum ex SASA were isolated in a laboratory. F. sambucinum ex SASA was supplied by SASA (Science and Advice for Scottish Agriculture, Roddinglaw Road, Edinburgh, EH12 9F, UK).
In each test three replicate plates for each organism per concentration were used and tests were repeated at least once.

[3] = isolate P. erythroseptica BL2/08 P31

Structure (SMILES): C=CCOC(Cn1ccnc1)c1ccc(Cl)cc1Cl (stereo not drawn) [Imazalil, imazalil, reference compound]
- EC50 (F. culmorum; Fusarium culmorum): 0.4 µM
- EC50 (F. coeruleum): 12.9 µM
- EC50 (F. sambucinum; Fusarium sambucinum, isolate F. sambucinum L'gall 11): 1.8 µM
- EC50 (F. sambucinum; Fusarium sambucinum, isolate F. sambucinum ex SASA, log-probability plot): 0.7 µM
- EC50 (Phoma exigua): 5.6 µM
- EC50 (Phoma foveata; Boeremia foveata): 2.7 µM
- EC50 (P. erythroseptica; Phytophthora erythroseptica, isolate P. erythroseptica Rooster Eire): > 127 µM
- EC50 (P. erythroseptica; [3]): > 127 µM

Structure (SMILES): C=CCOC(Cn1ccnc1)c1ccc(Cl)cc1Cl (stereo not drawn) [Imazalilium docusate, imazalilium docusate]
- EC50 (F. culmorum): 0.4 µM
- EC50 (F. coeruleum): 19.2 µM
- EC50 (F. sambucinum; isolate F. sambucinum L'gall 11): 2.6 µM
- EC50 (F. sambucinum; isolate F. sambucinum ex SASA, log-probability plot): 1 µM
- EC50 (Phoma exigua): 7.3 µM
- EC50 (Phoma foveata): 4.6 µM
- activity against P. erythroseptica (P. erythroseptica; in words, Table 6): showed some activity
- EC50 (P. erythroseptica; [3]): 38.4 µM
- EC50 (P. erythroseptica; isolate P. erythroseptica Rooster Eire): 100 µM
- T5% onset (decomposition temperature, onset to 5 wt % mass loss) [1]: 208.8 °C

Structure (SMILES): c1ccc2[nH]c(-c3cscn3)nc2c1 [TBZ docusate, thiabendazolium docusate]
- activity against P. erythroseptica compared with thiabendazole alone [2]: more active
- T5% onset (decomposition temperature, onset to 5 wt % mass loss) [1]: 252.0 °C

Structure (SMILES): CCn1cc[n+](C)c1.CCn1cc[n+](C)c1.S=C([S-])NCCNC(=S)[S-] [[C2mim]2ebdtc, di(1-ethyl-3-methylimidazolium)ethylenbis-(dithiocarbamate)]
- T5% onset (decomposition temperature, onset to 5 wt % mass loss) [1]: 147.1

From patent publication US20130217735A1, “FUNGICIDAL COMPOSITIONS AND METHODS OF USE” (Agri-Food and BioSciences Institute, priority 2010, published 2013)
